The values below come from US7229785B2, “Fluorescence technique for on-line monitoring of state of hydrogen-producing microorganisms” (priority 2002, dated 2007).

The test system of test [1] is sulfur-depleted C. reinhardtii cells. Kind of test: Effect of DCMU on the rate of H2 photoproduction by sulfur-depleted algal cultures. As to conditions: 10 μM DCMU added to culture after H2 gas production has started. The class given is cell-based, Chlamydomonas reinhardtii. Here is the method:
[…]. DCMU was added to treated cells at the arrow. Time zero in this case represents the time after H2 photoproduction starts.
Chlamydomonas reinhardtii strain Dangeard C137+ was grown in Tris-acetate-phosphate (TAP) medium (pH, 7.0) under continuous cool-white fluorescent light. Late-log cells were pelleted three times by centrifiguation and re-suspended in the same medium, from which inorganic sulfure (TAP-S) was omitted. The cells were incubated under continuous fluorescent illumation (200-250 μE m^−2 s^−1 PAR) in cylindrical reactor vessels (600 ml) with a rotating glass rod and Teflon impellers for mixing. A magnetic bar was attached at the bottom of the rod to couple it to an external stirring motor, and the rate of mixing was 60-80 rpm. The vessels were sealed using a silicon stopper with an outlet tube inserted through it for gas collection. The gas produced by the cells was collected in an inverted graduated glass cylinder by water displacement.
The direct involvement of PSII-catalyzed water oxidation activity by sulfur-deprived cells was further investigated using PAM fluorescence techniques.

The next test relates to C. reinhardtii cells. Kind of test: Inhibitor (KCN, SHAM) effect on rates of dark respiration during sulfur deprivation, Clark electrode. In kind it is cell-based, Chlamydomonas reinhardtii. The conditions noted are these: SHAM 4 mM, 5 min, 17% O2. The protocol: To determine the precise moment of H2-photoproduction onset, we measured the percentage of H2 contained in the gas phase (˜7 ml) on the top of the vessel immediately after anaerobiosis by gas chromatography. The dissolved O2 and redox potential of the medium were also measured. Chlorophyll concentrations were then obtained spectrophotometrically in 95% ethanol cell extracts. The capacity for respiratory O2 consumption was measured with a Clark electrode at 25° C. under aerobic conditions (17% or 170 μM O2) after removing the samples from the culture vessel and equilibrating them with air for 5 minutes.
The PQ pool is further oxidized by dissolved O2 through the action of PQ-oxidase. In the mitochondria, NADH and FADH2 generated by the Krebs Cycle serve as the source of electrons for a membrane-bound electron transport chain with O2 as the final electron acceptor. The cytochrome oxidase transduces the production of 3 ATP molecules per pair of electrons transported. […]. In both cases, O2 is the terminal electron acceptor. The mitochondrial cytochrome oxidase in C reinhardtii is inhibited by KCN, carbon monoxide, and sodium azide, while the alternative oxidase is specifically affected by salicylic hydroxamic acid (SHAM). The putative chloroplast PQ oxidase, on the other hand, is not inhibited by SHAM and only slightly affected by KCN. By measuring the influence of two inhibitors, KCN and SHAM, on the rates of dark respiration, we tried to estimate the relative contributions of each of the three oxidases at different times after sulfur deprivation. The actual contributions of the three oxidases to the scavenging O2 in situ depend on many factors such as their relative KM's for O2 and the rate of diffusion of O2 from the chloroplast to the mitochondria. Thus, the inhibitor studies that follow may not directly reflect the actual situation in the photobioreactor, but they do indicate that changes in the relative contribution of the three oxidases occur over the course of sulfure deprivation.
Contributions to the mitochondrial cytochrome oxidase [CO], mitochondrial alternative oxidase [AO], and chlororespiration [CR] to the total respiration rate of C. reinhardtii cells are also shown during sulfur-deprivation. […].

For DCMU, the “decrease of the rate of H2 gas production” value in test [1] turned out to be 80%.
In the case of `O=C(NO)c1ccccc1O` [SHAM, salicylic hydroxamic acid], the “% SHAM inhibition (% AO) of respiration” value in the test on C. reinhardtii cells (During H2 production) was determined as 38%; in the test on C. reinhardtii cells (End of H2 production) it was 100%; in the test with C. reinhardtii cells (Start of H2 production phase), 13%; in the test with C. reinhardtii cells (Start of anaerobic phase), 0%; with C. reinhardtii cells (Start of sulfur depletion), 25%.
